Source: ChEMBL document CHEMBL1124710, “Studies on Ca2+ channel antagonists. A 2-diazo-3,3,3-trifluoropropionamide derivative related to verapamil as a potential photoaffinity probe” (J Med Chem, 1990)
pEC50, pKi: −log10 of the molar value.

Tests used:
[1] = Binding affinity to displace 0.4 nM of [3H]- gallopamil in rat myocardial membranes; assay type: cell membranes, Myocardium, Membrane
[2] = species: Rattus norvegicus; test: Effective concentration for negative inotropic effect in rat myocardial ventricular strips; assay type: functional; settings: Cardiac ventricle

Row | pKi [1] | pEC50 [2] | SMILES
1 | 7.42 | 6.98 | COc1ccc(C(C#N)(CCCN(C)CCc2ccc(N(C)C(=O)C([N+]#N)C(F)(F)F)cc2)C(C)C)cc1OC (centres undefined)
2 | 7.81 | 7.66 | COc1ccc(CCN(C)CCCC(C#N)(c2cc(OC)c(OC)c(OC)c2)C(C)C)cc1OC (centres undefined) [GALLOPAMIL]
